From US8969397B2, “Systems and methods to treat pain locally” (Warsaw Orthopedic, Inc., priority 2004, dated 2015)

Experiments:
[1] = test system: chronic constriction injury (CCl) of the sciatic nerve; test: Mechanical (tactile) allodynia, von Frey filaments, after chronic constriction injury; assay type: in vivo, rat; conditions: for decrease in pain sensitivity, mechanical allodynia test / pain sensitivity in the mechanical allodynia test, in words: Example 4, FIG. 5B; for sensitivity in mechanical allodynia paradigm compared to controls: Example 3, FIG. 4, Days 8, 15 and 22 following CCl
Description: (§1) The behavioral animal model of chronic constriction injury (“CCl”) was chosen to evaluate the efficacy of NFκB inhibitors as a pain treatment. This model may mimic pain associated with sciatica in humans. To induce CCl, each animal was anesthetized by intraperitoneal (“i.p.”) injection of sodium pentobarbital at a dose of 60 mg/kg body weight. The animal's right common sciatic nerve was exposed and freed from adherent tissue at mid-thigh by separating the muscle (biceps femoris) by blunt dissection. Four loose ligatures were placed 1 mm apart, using chromic gut (4-0 absorbable suture, Jorgensen Laboratories Inc., Loveland, Colo.).
The ability of sulfasalazine to inhibit pain was also evaluated using a different sensitivity measure following CCl, namely mechanical (or tactile) allodynia. In this study, mechanical allodynia was determined in reaction to probing with von Frey filaments (Stoelting, Wood Dale, Ill.). Mechanical sensitivity was measured on Days 8, 15 and 22 following CCl by determining the median 50% foot withdrawal threshold for von Frey filaments using the up-down method described in Chaplan et al. (J Neurosci Methods 1994; 54:55) which is incorporated by reference herein for its teachings regarding the up-down method. Rats were placed under a plastic cover (9×9×20 cm) on a metal mesh floor. The area tested was the middle glabrous area between the footpads of the plantar surface of the injured hind paw within the L4 innervation area. The plantar area was touched with a series of 9 von Frey hairs with approximately exponentially incremental bending forces (von Frey values: 3.61, 3.8, 4.0, 4.2, 4.41, 4.6, 4.8, 5.0, and 5.2; equivalent to: 0.41, 0.63, 1.0, 1.58, 2.51, 4.07, 6.31, 10, and 15.8 g). The von Frey hair was presented perpendicular to the plantar surface with sufficient force to cause slight bending and held for approximately 3 to 4 seconds. Abrupt withdrawal of the foot (paw flinching) was recorded as a response. Any rat showing a mechanical threshold of more than 3.24 g was eliminated from the study.

[2] = test system: chronic constriction injury (CCl) of the sciatic nerve; test: Thermal hyperalgesia test (paw withdrawal latency) after chronic constriction injury; assay type: in vivo, rat; conditions: for increase in paw withdrawal latency over baseline: 0.1 mg/kg; for mean paw withdrawal latency over baseline: Example 1, FIG. 2
Description: as §1
Animal behavioral testing was conducted on Days 7, 14 and 21 after CCl. In the thermal hyperalgesia test, animals were placed in the clear plastic chamber of a plantar analgesia instrument and allowed to acclimate to the environment for 15 minutes. After the acclimation period, a radiant (heat) beam source stimulus was applied to the CCl hind paw of each animal. The heat source device was set at an intensity of 50, and a maximum latency period of 15 seconds was set to prevent tissue damage according to the recommendations of the instrument manufacturer. If a paw withdrawal occurred within the 15 second period, an automated control interrupted both the stimulus and timer, turning off the radiant beam and recording the latency of time to paw withdrawal. Data was analyzed using a one-way analysis of variance at each test day.
Specifically, the same methods as described above were used except that sulfasalazine was administered at doses of 5 mg/kg; 1 mg/kg or 0.2 mg/kg.
Following the previous experiment, the effect of local doses of clonidine on pain sensitivity was explored. Animals were administered vehicle or test substances through a subcutaneously implanted Alzet pump. Again, the previously described methods for CCl and paw withdrawal latency measurements were followed except that in the presently described experiment animals received either vehicle control; 1 μg/hour Enbrel® as a positive control; 0.01 μg/hour clonidine; 0.05 μg/hour clonidine; or 0.25 μg/hour clonidine.

[3] = rat, in vivo, 100 mg/kg
[4] = test system: Complete Freund's Adjuvant (CFA) inflammatory pain model; conditions: spinal administration; cited from earlier work

Clc1cccc(Cl)c1N=C1NCCN1 [clonidine]
decrease in pain sensitivity, mechanical allodynia test ([1]; 0.1 mg/kg, day 8): about 58%
decrease in pain sensitivity, mechanical allodynia test ([1]; 0.1 mg/kg, day 15): ~20%
decrease in pain sensitivity, mechanical allodynia test ([1]; 0.1 mg/kg, day 22): ~48%
pain sensitivity in the mechanical allodynia test, in words ([1]; low dose (0.02 mg/kg), effect not as strong): decreased sensitivity
increase in paw withdrawal latency over baseline ([2]; Example 4, FIG. 5A, test day 7): about 78%
increase in paw withdrawal latency over baseline ([2]; Example 4, FIG. 5A, test day 21): ~61%
increase in paw withdrawal latency over baseline ([2]; Example 4, FIG. 5A, test day 41): ~60%
paw withdrawal latency over baseline ([2]; Example 5, FIG. 6, subcutaneously implanted Alzet pump, 0.01 μg/hour, test day 7): about 60%
paw withdrawal latency over baseline ([2]; Example 5, FIG. 6, subcutaneously implanted Alzet pump, 0.01 μg/hour, test day 14): ~64%
paw withdrawal latency over baseline ([2]; Example 5, FIG. 6, subcutaneously implanted Alzet pump, 0.01 μg/hour, test day 21): ~79%
paw withdrawal latency over baseline ([2]; Example 5, FIG. 6, subcutaneously implanted Alzet pump, 0.05 μg/hour, test day 7): about 68%
paw withdrawal latency over baseline ([2]; Example 5, FIG. 6, subcutaneously implanted Alzet pump, 0.05 μg/hour, test day 14): ~64%
paw withdrawal latency over baseline ([2]; Example 5, FIG. 6, subcutaneously implanted Alzet pump, 0.05 μg/hour, test day 21): ~83%
paw withdrawal latency over baseline ([2]; Example 5, FIG. 6, subcutaneously implanted Alzet pump, 0.25 μg/hour, test day 7): about 63%
paw withdrawal latency over baseline ([2]; Example 5, FIG. 6, subcutaneously implanted Alzet pump, 0.25 μg/hour, test day 14): ~70%
paw withdrawal latency over baseline ([2]; Example 5, FIG. 6, subcutaneously implanted Alzet pump, 0.25 μg/hour, test day 21): ~82%
dose reduction without loss of efficacy ([2]; Example 5, local dosing by pump): 25 fold

CC1=C(CC(=O)O)c2cc(F)ccc2/C1=C\c1ccc([S+](C)[O-])cc1 (centres unmarked) [sulindac]
decrease in pain sensitivity, mechanical allodynia test ([1]; 2 mg/kg, day 8): about 66%
decrease in pain sensitivity, mechanical allodynia test ([1]; 2 mg/kg, day 15): ~50%
decrease in pain sensitivity, mechanical allodynia test ([1]; 2 mg/kg, day 22): ~35%
decrease in pain sensitivity, mechanical allodynia test ([1]; 10 mg/kg, day 8): about 68%
decrease in pain sensitivity, mechanical allodynia test ([1]; 10 mg/kg, day 15): about 58%
decrease in pain sensitivity, mechanical allodynia test ([1]; 10 mg/kg, day 22): ~60%
paw withdrawal latency over baseline ([2]; Example 4, FIG. 5A, 2 mg/kg, all three test days): about 65%
paw withdrawal latency over baseline ([2]; Example 4, FIG. 5A, 10 mg/kg, test day 7): about 65%
paw withdrawal latency over baseline ([2]; Example 4, FIG. 5A, 10 mg/kg, test day 21): about 75%
paw withdrawal latency over baseline ([2]; Example 4, FIG. 5A, 10 mg/kg, test day 41): ~81%

O=C(O)c1cc(/N=N/c2ccc(S(=O)(=O)Nc3ccccn3)cc2)ccc1O [sulfasalazine]
sensitivity in mechanical allodynia paradigm compared to controls [1]: decreased sensitivity
mean paw withdrawal latency over baseline ([2]; 5 mg/kg, test day 7): about 80%
mean paw withdrawal latency over baseline ([2]; 5 mg/kg, test day 14): ~83%
mean paw withdrawal latency over baseline ([2]; 5 mg/kg, test day 21): ~87%
mean paw withdrawal latency over baseline ([2]; 50 mg/kg, test day 7): about 74%
mean paw withdrawal latency over baseline ([2]; 50 mg/kg, test day 14): ~79%
mean paw withdrawal latency over baseline ([2]; 50 mg/kg, test day 21): ~83%

S=C(S)N1CCCC1 [PDTC, pyrollidinedithiocarbamate]
drug toxicity [3]: removed from the study following the second day of testing due to drug toxicity
pain sensitivity in the mechanical allodynia test, in words ([1]; compared to animals receiving vehicle or Enbrel): showed some effect in decreasing pain sensitivity
paw withdrawal latencies versus control levels ([2]; Example 4, FIG. 5A, 20 mg/kg or 100 mg/kg, not as effective as other NFκB inhibiting compounds): did increase paw withdrawal latencies over control levels
mechanical allodynia [4]: significantly reduce
thermal hyperalgesia [4]: significantly reduce

Enbrel®
sensitivity in mechanical allodynia paradigm compared to controls [1]: decreased sensitivity
mean paw withdrawal latency over baseline ([2]; 3 mg/kg, test day 7): about 60%
mean paw withdrawal latency over baseline ([2]; 3 mg/kg, test day 14): ~63%
mean paw withdrawal latency over baseline ([2]; 3 mg/kg, test day 21): ~75%
paw withdrawal latency over baseline ([2]; Example 2, FIG. 3, positive control, test day 7): about 51%
paw withdrawal latency over baseline ([2]; Example 2, FIG. 3, positive control, test day 14): ~63%
paw withdrawal latency over baseline ([2]; Example 2, FIG. 3, positive control, test day 21): ~62%
paw withdrawal latency over baseline, average ([2]; Example 4, FIG. 5A, 3 mg/kg, all three test days): about 51%
paw withdrawal latency over baseline ([2]; Example 5, FIG. 6, subcutaneously implanted Alzet pump, 1 μg/hour, test day 7): about 45%
paw withdrawal latency over baseline ([2]; Example 5, FIG. 6, subcutaneously implanted Alzet pump, 1 μg/hour, test day 14): about 60%
paw withdrawal latency over baseline ([2]; Example 5, FIG. 6, subcutaneously implanted Alzet pump, 1 μg/hour, test day 21): ~71%
